Measurements reported in patent publication US9234006B2, “Compounds” (Novacta Biosystems Limited, priority 2011, dated 2016).
Structures can show the parent of a compound that is named as a salt. Where a SMILES comes first, the peptide text is derived from it. Bridges are numbered along the chain shown (N, C = ends). [ ]: non-standard residue; d: D form. The star is where a group is joined. ξ: configuration not given here. Thr(3ξ) = CC(O)[C@H](N)C(=O)O; Dab = NCC[C@H](N)C(=O)O; X1 = CCCCCCC(O)C(=O)*; GABA = NCCCC(=O)O

Columns and labels:
[1] = Pharmacokinetic and urinary clearance studies in rats; assay type: in vivo
Protocol: Drug solutions were prepared at 4 mg/mL in Normal Saline and the pH adjusted to 6-7 by adding the appropriate volume of 0.1 M H2SO4 or 4.2% NaHCO3. The solutions were filter-sterilized and stored at −80° C. before use. On the day of the experiment, drug solutions were diluted to 1 mg/mL with sterile Normal Saline.
Groups of 3 male Sprague Dawley rats were acclimatised for a minimum of 4 days before the study. Rats were anesthetized using isofluorane and a cannula was inserted into the jugular vein. One day after surgery, rats were dosed with an intravenous bolus injection of the solution at 1 mg/kg through the cannula, followed by washing with Normal Saline. Blood was collected manually through the cannula prior to administration of the compound and at 0.08, 0.25, 0.5, 1, 3, 6, 8 and 24 h thereafter. Plasma was harvested by centrifugation immediately after blood collection. Twenty-four hour urine samples were collected prior to and after administration of the compound in 0-4 h, 4-6 h, and 6-24 h intervals. Plasma and urine samples were frozen at −20° C.
Determination of the plasma and urine concentrations of the drug was performed by Liquid Chromatography Mass Spectrometry (LC-MS/MS). Before analysis the plasma and urine samples were prepared as follows. Plasma samples were thawed on the day of analysis and mixed with 3 volumes of acetonitrile containing 0.1% (v/v) formic acid and 100 ng/mL of internal standard. After centrifugation, supernatants were transferred to a 96-well plate and diluted 1:1 with water ready for analysis by LC-MS/MS. Urine samples were purified by solid-phase extraction (SPE) on Oasis HLB cartridges (Waters, UK) eluting with 100% methanol. An aliquot was transferred to a 96 well plate and diluted 1:1 with water before addition of internal standard solution, ready for analysis by LC-MS/MS.
The pharmacokinetic parameters were determined by non-compartmental analysis using WinNonLin v5.3. The urinary recovery was recorded as the percentage of intact drug recovered in the urine for the first 24 h after injection.

K. pneumoniae NCTC7427 = assay: MIC susceptibility testing, broth microdilution in CaMHB; assay type: cell-based, Klebsiella pneumoniae
Outline: (§1)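 Each strain is grown from fresh agar colonies overnight in CaMHB (37° C, 250 rpm), subcultured to OD600 0.2-0.3 and diluted 100-fold into fresh medium for inoculation. MICs are determined in duplicate.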

K. pneumoniae ATCC 4352 = assay: as above; assay type: cell-based, Klebsiella pneumoniae
Outline: as §1

[2] = tested on: K. pneumoniae ATCCBAA-1706; assay: as above; assay type: cell-based, Klebsiella pneumoniae; settings: Table 4
Outline: as §1

K. pneumoniae NCTC8172 = assay: as above; assay type: cell-based, Klebsiella pneumoniae
Outline: as §1

E. coli NCTC12900 = assay: as above; assay type: cell-based, Escherichia coli
Outline: as §1

E. coli ATCC700928 = assay: as above; assay type: cell-based, Escherichia coli
Outline: as §1

E. coli NCTC9001 = assay: as above; assay type: cell-based, Escherichia coli
Outline: as §1

E. coli ATCC25922 = assay: as above; assay type: cell-based, Escherichia coli
Outline: as §1

A. baumannii NCTC7844 = assay: as above; assay type: cell-based, Acinetobacter baumannii
Outline: as §1

A. baumannii ATCC19606 = assay: as above; assay type: cell-based, Acinetobacter baumannii
Outline: as §1

P. aeruginosa ATCC27853 = assay: as above; assay type: cell-based, Pseudomonas aeruginosa
Outline: as §1

P. aeruginosa ATCC 9721 = assay: as above; assay type: cell-based, Pseudomonas aeruginosa
Outline: as §1

P. aeruginosa ATCC10145 = assay: as above; assay type: cell-based, Pseudomonas aeruginosa
Outline: as §1

[3] = tested on: P. aeruginosa ATCCCRM-9027; assay: as above; assay type: cell-based, Pseudomonas aeruginosa
Outline: as §1

[4] = male, Sprague Dawley, rat, in vivo, iv, 1 mg/kg
[5] = Table 4A, different batches of cation-adjusted Muller-Hinton broth
[6] = K. pneumoniae ATCC 4352, Table 4
[7] = K. pneumoniae ATCC4352, Table 4A, different batches of cation-adjusted Muller-Hinton broth
[8] = P. aeruginosa ATCC 9721, Table 4
[9] = P. aeruginosa ATCC9721, Table 4A, different batches of cation-adjusted Muller-Hinton broth
[10] = P. aeruginosa AATCCRM 9027, Table 4A, different batches of cation-adjusted Muller-Hinton broth
[11] = P. aeruginosa ATCCCRM-9027, Table 4
[12] = male Sprague Dawley rats, intravenous bolus 1 mg/kg
[13] = male Sprague Dawley rats, intravenous bolus 1 mg/kg, plasma

Compound | MIC (K. pneumoniae NCTC7427; Table 4) [micrograms/mL] | MIC (K. pneumoniae NCTC7427; [5]) [micrograms/mL] | MIC (K. pneumoniae ATCC 4352; [6]) [micrograms/mL] | MIC (K. pneumoniae ATCC 4352; [7]) [micrograms/mL] | MIC [2] [micrograms/mL] | MIC (K. pneumoniae NCTC8172; [5]) [micrograms/mL] | MIC (E. coli NCTC12900; [5]) [micrograms/mL] | MIC (E. coli ATCC700928; Table 4) [micrograms/mL] | MIC (E. coli ATCC700928; [5]) [micrograms/mL] | MIC (E. coli NCTC9001; Table 4) [micrograms/mL] | MIC (E. coli NCTC9001; [5]) [micrograms/mL] | MIC (E. coli ATCC25922; Table 4) [micrograms/mL] | MIC (E. coli ATCC25922; [5]) [micrograms/mL] | MIC (A. baumannii NCTC7844; Table 4) [micrograms/mL] | MIC (A. baumannii NCTC7844; [5]) [micrograms/mL] | MIC (A. baumannii ATCC19606; Table 4) [micrograms/mL] | MIC (A. baumannii ATCC19606; [5]) [micrograms/mL] | MIC (P. aeruginosa ATCC27853; Table 4) [micrograms/mL] | MIC (P. aeruginosa ATCC27853; [5]) [micrograms/mL] | MIC (P. aeruginosa ATCC 9721; [8]) [micrograms/mL] | further results
CCCCCCC(O)C(=O)N[C@H](C(=O)N[C@@H](CCN)C(=O)N[C@H]1CCNC(=O)[C@H](C(C)O)NC(=O)[C@H](CCN)NC(=O)[C@H](CCN)NC(=O)[C@H](CC(C)C)NC(=O)[C@@H](Cc2ccccc2)NC(=O)[C@H](CCN)NC1=O)C(C)O (stereo partly drawn) [Example 2, [2(R,S)-2-Hydroxyoctanoyl] Polymyxin B Nonapeptide, Sulphate Salt] (X1-[Thr(3ξ)][Dab][Dab][Dab][dF]L[Dab][Dab][Thr(3ξ)]; lactam 3-C) | 4 | 0.5 | 0.5 | 1 | 0.5 | 4 | 8 | 0.25 | 0.5 | 0.25 | 2 | 1 | 2 | 2 | 4 | 2 | 2 | 0.5 | 0.5 | 2 | AUC(0-inf) [1, 4]: 4010 ng·h/mL; Cmax [1, 4]: 2400 ng/mL; Vd [1, 4]: 0.488 L/kg; clearance [1, 4]: 4.18 mL/min/kg; half-life [1, 4]: 1.34 h; MIC (K. pneumoniae NCTC8172; Table 4): 4 micrograms/mL; MIC (E. coli NCTC12900; Table 4): 0.25 micrograms/mL; MIC (P. aeruginosa ATCC 9721; [9]): 0.5 micrograms/mL; MIC (P. aeruginosa ATCC10145; Table 4): 1 micrograms/mL; MIC (P. aeruginosa ATCC10145; [5]): 1 micrograms/mL; MIC [3, 10]: 0.5 micrograms/mL; MIC [3, 11]: 0.25 micrograms/mL
CC(C)C[C@@H]1NC(=O)[C@@H](Cc2ccccc2)NC(=O)[C@H](CCN)NC(=O)[C@@H](NC(=O)[C@H](CCN)NC(=O)[C@@H](NC(=O)CCCN)[C@@H](C)O)CCNC(=O)[C@H]([C@@H](C)O)NC(=O)[C@H](CCN)NC(=O)[C@H](CCN)NC1=O [Example 6, 4-Aminobutanoyl Polymyxin B Nonapeptide, Sulphate Salt] (H-[GABA]T[Dab][Dab][Dab][dF]L[Dab][Dab]T; lactam 4-C) | 0.125 | 0.125 | 0.125 | 1 | 0.25 | 16 | 8 | 0.125 | 2 | 1 | 8 | 0.5 | 2 | 2 | 2 | 0.25 | 4 | 0.25 | 0.25 | 0.125 | AUC(0-inf) [1, 4]: 2620 ng·h/mL; Cmax [1, 4]: 3580 ng/mL; Vd [1, 4]: 0.289 L/kg; clearance [1, 4]: 6.43 mL/min/kg; half-life [1, 4]: 0.56 h; MIC (E. coli NCTC12900; Table 4): 2 micrograms/mL; MIC (P. aeruginosa ATCC 9721; [9]): 0.125 micrograms/mL; MIC (P. aeruginosa ATCC10145; Table 4): 0.25 micrograms/mL; MIC (P. aeruginosa ATCC10145; [5]): 0.5 micrograms/mL; MIC [3, 10]: 0.25 micrograms/mL; MIC [3, 11]: 0.125 micrograms/mL
Polymyxin B [reference compound] | 0.25 | 0.25 | 0.5 | 0.25 | 0.25 | 1 | 0.25 | 0.25 | 0.25 | 0.25 | 0.25 | 0.5 | 1 | 0.25 | 0.25 | 0.5 | 0.125 | 0.5 | 0.5 | 0.5 | CL (clearance) [1, 12]: 7.15 mL/min/kg; Vd [1, 12]: 1.12 L/kg; AUC(0-inf) [1, 13]: 2372 ng·h/mL; Cmax [1, 13]: 1455 ng/mL; t1/2 [1, 13]: 1.94 h; Urinary recovery ([1]; male Sprague Dawley rats, intravenous bolus 1 mg/kg, intact drug in urine in first 24 h): 0.3 % dose; MIC (K. pneumoniae NCTC8172; Table 4): 0.5 micrograms/mL; MIC (P. aeruginosa ATCC 9721; [9]): 0.125 micrograms/mL; MIC (P. aeruginosa ATCC10145; Table 4): 0.5 micrograms/mL; MIC (P. aeruginosa ATCC10145; [5]): 1 micrograms/mL; MIC [3, 10]: 0.25 micrograms/mL; MIC [3, 11]: 0.25 micrograms/mL
